Patent publication US7049094B2, “Methods for identifying modulators of N-type ion channel inactivation” (Wyeth, priority 1999, dated 2006)

Tests used:
PTZ-induced seizures = assay: Protection against pentylenetetrazol-induced seizures; type: in vivo; settings: Mus musculus; mice, I.P., 30 min before PTZ 85 mg/kg s.c.; read-out: estimated ED50, protection against PTZ-induced seizures
Experimental: FIG. 8. Protection against pentelenetetrazol-induced seizures in the mouse. Adult male mice were treated with valproic acid (FIG. 8a), Compound A (FIG. 8b), and Compound B (FIG. 8c) at doses from 30–178 mg/kg i.p. (n=8/dose). Thirty minutes later, these animals were challenged with pentelenetetrazol (85 mg/kg, SC) and observed for onset of seizures during a 30 minute test period. The number of animals protected from seizures was plotted versus dose of test compound and ED50s were estimated from this dose-response data.
The activities of Kv channel modulators were examined in several in vitro and in vivo seizure models. Field potential recordings were performed in the CA1 region of rat hippocampal slices treated with 10 μM bicuculline to induce multiple population spikes (Albus, H. and R. Williamson, Epilepsia (1998) 39(2):124–139). […] To test this hypothesis directly, the disinactivators were examined for their ability to protect mice from pentylenetetrazol-induced seizures. Mice were pretreated with Compound “D” or Compound “E” (30–300 mg/kg i.p.), valproic acid (156 mg/kg i.p.) or saline. Thirty minutes later, pentylenetetrazol (PTZ; 85 mg/kg, s.c.) was administered and the mice were monitored for development of spontaneous, recurrent seizures (a seizure was defined as loss of righting reflex; see Frey, H.-H. and I. Bartels, Epilepsy Res. (1997) 27:151–164). […]

hKv1.4 channels = molecular target: T1, hKv1.4 channels (Homo sapiens, UniProt P22459); assay: Elimination of N-type inactivation of hKv1.4 channels (CHO cells); type: cell-based; settings: glutathione keeps channels in reduced (inactivating) state
T1 construct: expressed in transfected cells; host or cells: CHO cells
T1 sequence (P22459 whole entry): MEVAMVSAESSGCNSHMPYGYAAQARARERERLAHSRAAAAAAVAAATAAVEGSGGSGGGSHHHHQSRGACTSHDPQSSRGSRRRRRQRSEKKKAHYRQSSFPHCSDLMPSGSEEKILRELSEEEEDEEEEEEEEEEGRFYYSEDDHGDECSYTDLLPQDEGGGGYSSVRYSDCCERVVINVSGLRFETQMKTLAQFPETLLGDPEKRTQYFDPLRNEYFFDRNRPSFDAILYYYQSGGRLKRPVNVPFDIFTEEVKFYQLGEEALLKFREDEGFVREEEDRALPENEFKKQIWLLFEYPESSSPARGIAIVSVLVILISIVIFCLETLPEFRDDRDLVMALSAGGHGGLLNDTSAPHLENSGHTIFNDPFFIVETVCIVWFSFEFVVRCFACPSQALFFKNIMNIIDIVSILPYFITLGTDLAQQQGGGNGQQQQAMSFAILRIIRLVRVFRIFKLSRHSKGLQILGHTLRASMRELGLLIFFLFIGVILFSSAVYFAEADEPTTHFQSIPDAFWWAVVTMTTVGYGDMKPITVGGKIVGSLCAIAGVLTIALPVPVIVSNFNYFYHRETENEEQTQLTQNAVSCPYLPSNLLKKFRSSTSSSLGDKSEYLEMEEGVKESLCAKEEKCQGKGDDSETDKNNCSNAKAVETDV
Experimental: Compounds active in the yeast assay were examined for their ability to disrupt N-type Kv channel inactivation in CHO cells transfected with hKv1.1 alone, hKv1.1 plus hKvβ1, or hKv1.4, and in Xenopus oocytes injected with the corresponding mRNA's. […] This “disinactivating” effect was potent and dose dependent, with an IC50 ranging from 0.3 μM to […] in CHO cells and a 3–5 fold higher IC50 of 0.9 μM in oocytes. […] In addition to the disinactivating effect of these compounds, a parallel dose-dependent increase in peak current occurred simultaneously with the loss of inactivation. This increase in peak current is probably at least partially due to the removal of inactivation, which uncovers the “true” peak current of the channels in the cell, although other mechanisms such as a stabilization of the open state of the channel may also be occurring. […] At 100 μM, however, Compound “A” blocked approximately 37% of the hKv1.1 current in CHO cells, thus high concentrations of some of these compounds are able to block Kv1.1 channels.
The mechanism of action of these Kv channel modulators (referred to herein as “disinactivators”) was further explored first by altering the voltage protocol so that single voltage steps to 50 mV were applied once every 20 sec (FIG. 8). […]

Row | Compound | ED50 (PTZ-induced seizures) | disinactivation of hKv1.4 with glutathione applied (hKv1.4 channels)
1 | CCCC(CCC)C(=O)O [valproic acid] | 141 mg/kg | 
2 | OO [Compound H2O2, H2O2] |  | Glutathione was able to block the disinactivation
